# Reference: patent publication US7498161B2 (priority 2003, dated 2009)
# Legend:
# C8161 cells = format: cell-based, human; conditions: 50 μM CB1954 alone
# A2780 xenograft = assay: Scheduling experiment: virus with or without CB1954, tumour volume in A2780 xenografts; format: in vivo, athymic nude mice; conditions: CB1954 alone, no virus, 80 mg/kg intra-peritoneal
# Experimental: The inventors proceeded to investigate two doses of the virus in combination with CB1954. The doses selected were 10^5 PFU and 10^6 PFU. Both these doses caused some tumour growth delay in earlier experiments.
# The prodrug is given as an 80 mg/kg intra-peritoneal injection, after dissolving the powdered form in 10% acetone and then making up the volume with peanut oil.
# Mice were randomized into treatment groups (treatment regimes shown in Table 2) of 3 animals when tumour diameters were approximately 5 mm (tumour volume […]).
# (§1) The treatment groups were administered with a single direct intratumoural injection of the virus and dose determined for that group. The virus was diluted PBS+10% serum. ‘No virus’ control groups received an intratumoural injection of 100 μl of PBS+10% serum. This day was designated as Experimental Day 0.
# (§2) Injections of CB1954 were given to the appropriate groups at days 2, 10 and 15. A dose of 80 mg/kg—the equivalent of approx. 2 mg per mouse—was given. The powdered form of the CB1954 drug (from Sigma) was dissolved in acetone to 10% of the final volume (10 μl per 2 mg). The volume was then made up to 2 mg CB1954 in 100 μl using peanut oil. A syringe was used to mix the drug as peanut oil is thick and viscous. The drug was made up fresh every time.
# The appropriate groups were then injected intra-peritoneal with this solution. […]
# [1] = Scheduling experiment: tolerability of the injections (weight, behaviour); format: in vivo, athymic nude mice; conditions: 80 mg/kg intra-peritoneal in 10% acetone/peanut oil
# Experimental: FIG. 26. Weight (as a measurement of health) in athymic nude mice with A2780 xenograft treated with either HSV 1790, HSV 1716, CB 1954 or a combination of them.
# as §1
# Some tumours bleed slightly after injection but not to a great degree. […] In all the tumours that bleed slightly, the following day the healing process had begun and within 3-5 days there was little evidence of any puncture wound on any tumour.
# as §2
# The appropriate groups were then injected intra-peritoneal with this solution. Control groups which were not receiving drug were injected intra-peritoneal with a 100 μl solution of 10% acetone in peanut oil.
smiles,measurement,setting,value
"NC(=O)c1cc(N2CC2)c([N+](=O)[O-])cc1[N+](=O)[O-] [CB1954, 5-aziridin-1-yl-2,4-dinitrobenzamide]",effect on cells,C8161 cells,no effect
same,effect on tumour growth,A2780 xenograft,little effect on tumour growth
same,behaviour after injection,[1],slightly lethargic for a short period after the injection
same,body weight,[1],did not lose any body weight
same,swelling or irritation at site of injection,[1],No swelling or irritation at the site of injection
